Among the data in US9815842B2, “Pyrazolo pyrimidine derivatives and their use as MALT1 inhibitors” (Novartis AG, priority 2014, dated 2017) are IC50 values, retold here.

In assay [1] the target is C-domain of MALT1 (amino acids 329-824) (Homo sapiens (Human), UniProt Q9UDY8). The assay can be described thus: MALT1 biochemical assay (fluorescence lifetime enzyme activity assay). As to conditions: 60 min pre-incubation, 2.5 nM enzyme, 1 μM peptide substrate. The method, then:
The readout parameter is the increase of fluorescence lifetime over time, proportional to enzyme activity.
The assay employs a short peptide substrate labeled with the single fluorophore PT14 as a fluorescence lifetime probe sensitive to the cleavage state of the substrate (PT14: 6-(9-oxo-9H-acridin-10-yl)-hexanoate, AssayMetrics, UK). […] The assay buffer consists of 200 mM Tris/HCl at pH 7.5, 0.8 M Na citrate, 100 μM EGTA, 100 μM DTT and 0.05% (w/v) CHAPS. […] Test compounds were dissolved in 100% (v/v) DMSO or a mixture containing 90% (v/v) DMSO and 10% (v/v) H2O at a stock concentration of 100 mM. Serial dilutions of test compounds were prepared using either 100% (v/v) DMSO or a mixture containing 90% (v/v) DMSO and 10% (v/v) H2O.

For assay [2], the target named is cIAP2-MALT1 fusion protein (Homo sapiens, UniProt Q9UDY8). Briefly: cell-based.
Chain of cIAP2-MALT1 fusion protein (Q9UDY8 2-824 limits assumed): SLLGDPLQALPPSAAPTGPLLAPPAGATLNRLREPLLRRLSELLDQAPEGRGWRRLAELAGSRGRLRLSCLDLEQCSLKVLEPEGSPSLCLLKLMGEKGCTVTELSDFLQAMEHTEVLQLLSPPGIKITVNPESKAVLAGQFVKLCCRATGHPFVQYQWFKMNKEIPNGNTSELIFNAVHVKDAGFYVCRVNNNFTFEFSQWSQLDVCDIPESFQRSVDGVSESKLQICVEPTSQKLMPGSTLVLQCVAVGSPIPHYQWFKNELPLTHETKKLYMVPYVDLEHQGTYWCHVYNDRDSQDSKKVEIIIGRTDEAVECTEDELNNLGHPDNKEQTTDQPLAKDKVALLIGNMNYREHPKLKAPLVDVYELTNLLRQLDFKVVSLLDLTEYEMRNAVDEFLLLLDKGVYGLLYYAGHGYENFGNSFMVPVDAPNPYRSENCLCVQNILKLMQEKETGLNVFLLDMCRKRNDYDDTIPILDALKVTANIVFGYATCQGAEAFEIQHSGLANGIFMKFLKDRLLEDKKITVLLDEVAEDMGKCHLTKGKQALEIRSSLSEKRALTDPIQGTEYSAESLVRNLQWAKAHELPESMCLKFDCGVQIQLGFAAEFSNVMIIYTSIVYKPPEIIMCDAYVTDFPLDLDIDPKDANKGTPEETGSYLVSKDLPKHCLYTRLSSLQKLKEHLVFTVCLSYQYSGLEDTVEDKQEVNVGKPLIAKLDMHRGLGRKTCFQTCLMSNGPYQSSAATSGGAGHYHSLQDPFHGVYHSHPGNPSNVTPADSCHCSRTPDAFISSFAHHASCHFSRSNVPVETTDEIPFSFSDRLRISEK
Procedure: For the measurement of compound inhibition, 0.25 μl of test compound were mixed with 12.5 μl of enzyme in wells of the 384-well plates, and incubated for 60 minutes at room temperature (22° C.). After that, 12.5 μl of substrate was added, and the enzymatic reaction was allowed to proceed for 60 minutes at room temperature (22° C.). […] The DMSO content was between 0.9 and 1% (v/v). […] The IC50 value was calculated from the plot of percentage inhibition versus inhibitor concentration using non-linear regression analysis software (Origin, OriginLab Corporation, USA). The data were fitted using a 4 Parameter Logistic Model, characterized by the following equation: y=A2+(A1−A2)/(1+(x/IC50)^p) where y is the %-inhibition at the inhibitor concentration, x. A1 is the lowest inhibition value, and A2 the maximum inhibition value.
Assay [3] concerns Human IL2 promoter. The assay can be described thus: Human IL2 promoter reporter gene assay (RGA) in Jurkat cells. The format is cell-based. As to conditions: Jurkat clone K22 290_H23, anti-CD28 mAb + PMA stimulation 5.5 h. Here is the method:
Human IL2 Promoter Reporter Gene Assay (RGA) in Jurkat Cells
The transfected Jurkat clone K22 290_H23 was propagated in RPMI 1640 supplemented with 10% heat inactivated fetal calf serum, 50 μM 2-mercaptoethanol and 1 mg/ml Geneticin. The cell concentration should not exceed 1×10e6/ml during culturing. The cells should not exceed passage 30. Prior to the assay the cells were washed and prepared to the concentration of 2×10e6 cells/ml.
Compound dilutions were made as 2×-concentrated solutions then diluted 1/2 by addition to cells. Two hundred and fifty μl of compound dilution and 250 μl of cells were mixed together in wells of a 96-deep well plate. Cells/compounds premix were incubated 30 min at 37° C. and 5% CO2 directly in the deep well plate.
After pre-incubation of cells with compounds, cells were stimulated with anti-CD28 mAb (clone 15E8) at 3 μg/ml+PMA at 1 μg/ml. Both co-stimulants were diluted in culture medium at a 10×-concentrated solution. 10 μl of co-stimulants were pipetted into the white 96-well plates and 100 μl of cell/compound mix was immediately added in duplicates. The cells were stimulated for 5.5 h at 37° C. and 5% CO2.
After cell stimulation, 50 μl of BriteLitePlus reagent (Perkin Elmer) was added to each well and the bioluminescence was measured with a Wallac EnVision reader (Perkin Elmer).
A general note: A reporter such as luciferase makes a cellular process visible.

Chain of C-domain of MALT1 (amino acids 329-824) (Q9UDY8 329-824): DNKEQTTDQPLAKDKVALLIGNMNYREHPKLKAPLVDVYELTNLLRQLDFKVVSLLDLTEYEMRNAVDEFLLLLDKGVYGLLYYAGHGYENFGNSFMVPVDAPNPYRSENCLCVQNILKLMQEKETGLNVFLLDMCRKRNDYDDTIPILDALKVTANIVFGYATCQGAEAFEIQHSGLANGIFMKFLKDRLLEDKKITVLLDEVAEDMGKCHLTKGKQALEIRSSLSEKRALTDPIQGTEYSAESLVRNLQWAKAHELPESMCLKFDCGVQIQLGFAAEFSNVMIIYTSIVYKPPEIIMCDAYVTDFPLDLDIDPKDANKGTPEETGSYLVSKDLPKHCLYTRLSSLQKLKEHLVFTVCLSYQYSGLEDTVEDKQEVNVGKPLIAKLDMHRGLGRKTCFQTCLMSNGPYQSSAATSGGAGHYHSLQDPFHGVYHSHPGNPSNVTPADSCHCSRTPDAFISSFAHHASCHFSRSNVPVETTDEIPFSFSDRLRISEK

With `CO[C@@H](c1c(NC(=O)Nc2cnc(-n3nccn3)c(C(F)(F)F)c2)cnc2cc(Cl)nn12)C(C)C` [Example 4, (R)-1-(6-(2H-1,2,3-triazol-2-yl)-5-(trifluoromethyl)pyridin-3-yl)-3-(2-chloro-7-(1-methoxy-2-methylpropyl)pyrazolo[1,5-a]pyrimidin-6-yl)urea], the IC50 (as a rule, the concentration that gives 50% inhibition) in assay [1] was 6 nM; in assay [2] it was 61 nM.

Take `CO[C@@H](c1c(NC(=O)Nc2cnc(-n3nccn3)c(Cl)c2)cnc2cc(Cl)nn12)C(C)C` [Example 5, (R)-1-(5-chloro-6-(2H-1,2,3-triazol-2-yl)pyridin-3-yl)-3-(2-chloro-7-(1-methoxy-2-methylpropyl)pyrazolo[1,5-a]pyrimidin-6-yl)urea]: the half-inhibitory concentration (IC50) in assay [1] came to 5 nM; in assay [2] it was 112 nM.

For `COc1cc(NC(=O)Nc2cnc3cc(Cl)nn3c2[C@H](C)OC)cnc1-n1nccn1` [Example 11, (S)-1-(2-chloro-7-(1-methoxyethyl)pyrazolo[1,5-a]pyrimidin-6-yl)-3-(5-methoxy-6-(2H-1,2,3-triazol-2-yl)pyridin-3-yl)urea], the figures for the 50% inhibitory concentration (IC50) in assay [1] and in assay [2] were 19 nM and 164 nM, respectively.

Take `CO[C@@H](C)c1c(NC(=O)Nc2ccnc(Cl)c2)cnc2cc(Cl)nn12` [Example 12, (S)-1-(2-chloro-7-(1-methoxyethyl)pyrazolo[1,5-a]pyrimidin-6-yl)-3-(2-chloropyridin-4-yl)urea]: the 50% inhibitory concentration (IC50) came out at 14 nM in assay [1] and 71 nM in assay [2].

For the molecule `COC(C)(C)c1c(NC(=O)Nc2ccnc(C(F)(F)F)c2)cnc2cc(Cl)nn12` [Example 15, 1-(2-chloro-7-(2-methoxypropan-2-yl)pyrazolo[1,5-a]pyrimidin-6-yl)-3-(2-(trifluoromethyl)pyridin-4-yl)urea], the results for the half-maximal inhibitory concentration (IC50) in assay [1] and in assay [2] were 5 nM and 110 nM, respectively.

With `CC1(c2c(NC(=O)Nc3ccnc(C(F)(F)F)c3)cnc3cc(Cl)nn23)CC1` [Example 17, 1-(2-chloro-7-(1-methylcyclopropyl)pyrazolo[1,5-a]pyrimidin-6-yl)-3-(2-(trifluoromethyl)pyridin-4-yl)urea], the half-inhibitory concentration (IC50) was 11 nM in assay [1] and 117 nM in assay [2].

Turning to `Cc1cc(CO)nn1-c1ccc(NC(=O)Nc2cnc3cc(Cl)nn3c2C(C)C)cc1Cl` [Example 28, 1-(3-chloro-4-(3-(hydroxymethyl)-5-methyl-1H-pyrazol-1-yl)phenyl)-3-(2-chloro-7-isopropylpyrazolo[1,5-a]pyrimidin-6-yl)urea], the half-maximal inhibitory concentration (IC50) in assay [2] turned out to be 215 nM.

Take `CC(C)c1c(NC(=O)Nc2cc(Cl)cc3c2NC(=O)C3)cnc2cc(Cl)nn12` [Example 31, 1-(5-chloro-2-oxoindolin-7-yl)-3-(2-chloro-7-isopropylpyrazolo[1,5-a]pyrimidin-6-yl)urea]: the concentration for half-maximal inhibition (IC50) in assay [1] amounted to 14 nM; in assay [2], 349 nM.

As to `CC(C)(C)c1c(NC(=O)Nc2cnc(-n3nccn3)c(Cl)c2)cnc2cc(Cl)nn12` [Example 34, 1-(7-(tert-butyl)-2-chloropyrazolo[1,5-a]pyrimidin-6-yl)-3-(5-chloro-6-(2H-1,2,3-triazol-2-yl)pyridin-3-yl)urea], the IC50 stood at 4 nM in assay [1] and 106 nM in assay [2].

For `CC1(c2c(NC(=O)Nc3ccnc(C(F)(F)F)c3)cnc3cc(Cl)nn23)CCCO1` (stereo not drawn) [Example 36, 1-(2-chloro-7-(2-methyltetrahydrofuran-2-yl)pyrazolo[1,5-a]pyrimidin-6-yl)-3-(2-(trifluoromethyl)pyridin-4-yl)urea], the values for the 50% inhibitory concentration (IC50) in assay [1] and in assay [2] were 9 nM and 183 nM, respectively.

With `CO[C@@H](c1c(NC(=O)Nc2ccnc(C(F)(F)F)c2)cnc2cc(Cl)nn12)C(C)C` [Example 37, (R)-1-(2-chloro-7-(1-methoxy-2-methylpropyl)pyrazolo[1,5-a]pyrimidin-6-yl)-3-(2-(trifluoromethyl)pyridin-4-yl)urea], the IC50 in assay [1] came to 11 nM; in assay [2] it was 221 nM.

For `COCCO[C@@H](C)c1c(NC(=O)Nc2cnc(-n3nccn3)c(Cl)c2)cnc2cc(Cl)nn12` [Example 39, (S)-1-(5-chloro-6-(2H-1,2,3-triazol-2-yl)pyridin-3-yl)-3-(2-chloro-7-(1-(2-methoxyethoxy)ethyl)pyrazolo[1,5-a]pyrimidin-6-yl)urea], the values for the IC50 in assay [1] and in assay [2] were 3 nM and 60 nM, respectively.

`CC(C)(C)OC(=O)N1CCOC(c2c(NC(=O)Nc3cnc(-n4nccn4)c(Cl)c3)cnc3cc(Cl)nn23)C1` (stereo not drawn) [Example 66, tert-butyl 2-(2-chloro-6-(3-(5-chloro-6-(2H-1,2,3-triazol-2-yl)pyridin-3-yl)ureido)pyrazolo[1,5-a]pyrimidin-7-yl)morpholine-4-carboxylate] displayed an IC50 in assay [2] of 241 nM.

Molecule `Cn1ccnc1-c1c(NC(=O)Nc2cnc(-n3nccn3)c(Cl)c2)cnc2cc(Cl)nn12` [Example 86, 1-(5-chloro-6-(2H-1,2,3-triazol-2-yl)pyridin-3-yl)-3-(2-chloro-7-(1-methyl-1H-imidazol-2-yl)pyrazolo[1,5-a]pyrimidin-6-yl)urea] came in with an IC50 in assay [2] of 569 nM.

With `CN(C)C1(c2c(NC(=O)Nc3cnc(-n4nccn4)c(C(F)(F)F)c3)cnc3cc(Cl)nn23)CC1` [Example 107, 1-(6-(2H-1,2,3-triazol-2-yl)-5-(trifluoromethyl)pyridin-3-yl)-3-(2-chloro-7-(1-(dimethylamino)cyclopropyl)pyrazolo[1,5-a]pyrimidin-6-yl)urea], the IC50 stood at 13 nM in assay [1] and 60 nM in assay [3].

`COCC(OC)c1c(NC(=O)Nc2cnc(-n3nccn3)c(C(F)(F)F)c2)cnc2cc(Cl)nn12` (stereo not drawn) [Example 108, 1-(6-(2H-1,2,3-triazol-2-yl)-5-(trifluoromethyl)pyridin-3-yl)-3-(2-chloro-7-(1,2-dimethoxyethyl)pyrazolo[1,5-a]pyrimidin-6-yl)urea]: the IC50 in assay [1] stood at 8 nM; in assay [3] it was 52 nM.

Regarding `COCC(OC)c1c(NC(=O)Nc2ccnc(C(F)(F)F)c2)cnc2cc(Cl)nn12` (stereo not drawn) [Example 109, 1-(2-chloro-7-(1,2-dimethoxyethyl)pyrazolo[1,5-a]pyrimidin-6-yl)-3-(2-(trifluoromethyl)pyridin-4-yl)urea], the half-maximal inhibitory concentration (IC50) in assay [1] was found to be 53 nM; in assay [3], 218 nM.

Take `COC[C@@H](C)c1c(NC(=O)Nc2cnc(-n3nccn3)c(C(F)(F)F)c2)cnc2cc(Cl)nn12` [Example 110, (S)-1-(6-(2H-1,2,3-triazol-2-yl)-5-(trilfuoromethyl)pyridin-3-yl)-3-(2-chloro-7-(1-methoxypropan-2-yl)pyrazolo[1,5-a]pyrimidin-6-yl)urea]: the figures for the IC50 in assay [1] and in assay [3] were 9 nM and 115 nM, respectively.

With `COC[C@H](C)c1c(NC(=O)Nc2cnc(-n3nccn3)c(C(F)(F)F)c2)cnc2cc(Cl)nn12` [Example 111, (R)-1-(6-(2H-1,2,3-triazol-2-yl)-5-(trifluoromethyl)pyridin-3-yl)-3-(2-chloro-7-(1-methoxypropan-2-yl)pyrazolo[1,5-a]pyrimidin-6-yl)urea], the IC50 in assay [1] was 3 nM; in assay [3], 54 nM.

Turning to `CN[C@@H](C)c1c(NC(=O)Nc2cnc(-n3nccn3)c(Cl)c2)cnc2cc(Cl)nn12` [Example 119, (S)-1-(5-chloro-6-(2H-1,2,3-triazol-2-yl)pyridin-3-yl)-3-(2-chloro-7-(1-(methylamino)ethyl)pyrazolo[1,5-a]pyrimidin-6-yl)urea], in assay [2], the IC50 is 157 nM.

With `CN[C@H](c1c(NC(=O)Nc2cnc(-n3nccn3)c(Cl)c2)cnc2cc(Cl)nn12)C(C)C` [Example 124, (S)-1-(5-chloro-6-(2H-1,2,3-triazol-2-yl)pyridin-3-yl)-3-(2-chloro-7-(2-methyl-1-(methylamino)propyl)pyrazolo[1,5-a]pyrimidin-6-yl)urea], the results for the 50% inhibitory concentration (IC50) in assay [1] and in assay [3] were 8 nM and 41 nM, respectively.

For `CN1CCOCC1c1c(NC(=O)Nc2cnc(-n3nccn3)c(Cl)c2)cnc2cc(Cl)nn12` (stereo not drawn) [Example 125, 1-(5-chloro-6-(2H-1,2,3-triazol-2-yl)pyridin-3-yl)-3-(2-chloro-7-(4-methylmorpholin-3-yl)pyrazolo[1,5-a]pyrimidin-6-yl)urea], the figures for the IC50 in assay [1] and in assay [3] were 9 nM and 138 nM, respectively.

`COC[C@@H](OC)c1c(NC(=O)Nc2cnc(-n3nccn3)c(Cl)c2)cnc2cc(Cl)nn12` [Example 127, (S)-1-(5-chloro-6-(2H-1,2,3-triazol-2-yl)pyridin-3-yl)-3-(2-chloro-7-(1,2-dimethoxyethyl)pyrazolo[1,5-a]pyrimidin-6-yl)urea]: the concentration for half-maximal inhibition (IC50) turned out to be 9 nM in assay [1] and 78 nM in assay [3].
